In patent US5516889A, “Synthetic thrombin receptor peptides” (University Technologies International, Inc., priority 1995, dated 1996):
Like-named read-outs stand apart in the source and are kept apart here. Residues, ends and D or L forms follow the SMILES beside them. *: point of attachment. Propionyl = CCC(=O)*

Key:
[1] = molecular target: T1, thrombin receptor (guinea pig gastric longitudinal muscle strips) (Cavia porcellus, UniProt A0A286XH07); settings: for Effect of inhibitor on contractile actions of P5--NH2 and Pr-P4: GLM
T1 sequence (A0A286XH07 24-426): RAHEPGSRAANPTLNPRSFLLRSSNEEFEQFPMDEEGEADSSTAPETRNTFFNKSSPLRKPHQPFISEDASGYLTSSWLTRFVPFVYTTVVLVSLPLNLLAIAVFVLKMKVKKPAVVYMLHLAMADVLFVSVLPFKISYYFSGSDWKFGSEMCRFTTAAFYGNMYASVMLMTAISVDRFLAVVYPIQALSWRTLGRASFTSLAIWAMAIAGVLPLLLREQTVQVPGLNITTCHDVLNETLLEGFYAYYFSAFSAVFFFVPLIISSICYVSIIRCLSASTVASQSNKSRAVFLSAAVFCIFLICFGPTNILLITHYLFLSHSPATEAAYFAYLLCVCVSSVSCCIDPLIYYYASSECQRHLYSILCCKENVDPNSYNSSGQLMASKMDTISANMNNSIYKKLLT
Experimental: (§1) The guinea pig gastric longitudinal muscle (GLM) strips and the rat thoracic aorta (RA) ring preparations were isolated as previously described 14, 15. In brief, gastric LM strips (3×10 mm), obtained from male albino Hartley strain guinea pigs were equilibrated for about 1.5 h at 37° (in an aerated (95% O2 /5% CO2) Krebs-Henseleit buffer (3 mL) of the following composition (in mM): NaCl, 118; KCl, 4.7; CaCl2, 2.5; MgCl2, 1.2; NaHCO3, 25; KH2 PO4, 1.2; and glucose, 10. The pH was maintained at 7.4. Rat gastric LM strips (3×10 mm) were obtained, as for the GLM strips, from male albino Sprague Dawley animals (250-300 g). The stomach, opened along the greater curvature, was stripped free of all mucosal tissue under microscopic visualization and longitudinal tissue strips were cut exactly at right angles to the visible circular muscle bundles. Tissue strips were pre-equilibrated in the buffer described above. Each tissue was challenged twice each in succession at timed intervals with 50 nM carbachol (20 min intervals), 1 μM angiotensin-II (1 h intervals) and 95 μM (60 μg/mL) receptor pentapeptide (P5, SFLLR, SEQ ID NO: 2) (25 min intervals for GLM; 30-35 min for RLM); tissues were washed at 10 and 15 min after the additions of agonists. Contractions were monitored isometrically using Statham force-displacement transducers. Only tissues responding well to all three agonists were used further for the evaluation of the biological activities of P5 and other peptide agonists.

[2] = test system: thrombin receptor (rat thoracic aorta rings, intact endothelium); settings: for Agonist (relaxation) activity: precontracted with 0.1 μM noradrenaline
Experimental: Thoracic RA rings (2 mm×3 mm), obtained from male albino Sprague Dawley rats, were equilibrated (about 1 h, 37° ) in the same organ bath buffer as was used for the LM tissue, and tension (baseline 1.0 g) was monitored isometrically using either Statham or Grass force-displacement transducers. The presence of an intact endothelium was ascertained by monitoring a relaxation response to acetylcholine (ACh, 1 μM) in a preparation that was submaximally (EC75) contracted by 0.1 μM noradrenaline (NA) in the presence of 0.1 mM ascorbic acid (to preserve the catecholamine). Only tissues yielding a relaxation concentration-response curve between 0.01 and 10 μM acetylcholine (maximal relaxation of 70 to 90%, relative to the tension developed by 0.1 μM NA) were used for the further evaluation of the receptor-derived peptides. The assay of TRP responsiveness was done (e.g. see FIG. 1) on tissues that were precontacted with 0.1 μM NA at 30 min time intervals. Tissues were washed approx. 5 min after the application of TRPs. […] For purposes of comparison, the same stock solutions of an individual peptide were evaluated, relative to P5, in both the RA and LM bioassays. When possible, both assays were done simultaneously on the same day.
Weighed peptide samples were routinely dissolved in 50 mM phosphate buffer, pH 7.4, to yield stock solutions, from which volumes of up to 0.2 mL were added directly to the organ bath; the concentrations of all stock solutions used were verified by quantitative amino acid analysis of aliquots. Pr-P4 and Pr-P4--NH2 were dissolved in 40 mM phosphate buffer, pH 7.4, containing 20% v/v absolute ethanol (i.e. 8 Vol of the above 50 mM phosphate buffer +2 Vol. ethanol). […] Indomethacin was dissolved in ethanol, such that the final ethanol concentration in the organ bath was at or lower than 0.01% v/v; this concentration of ethanol alone had no effect on the bioassay systems.

[3] = molecular target: T2, thrombin receptor (rat gastric longitudinal muscle strips) (Rattus norvegicus, UniProt P26824); test: Rat gastric longitudinal muscle (RLM) strip contractile assay; type: cell-based
T2 construct: Rat gastric LM strips (3×10 mm) were obtained; from tissue; host or cells: rat (Sprague Dawley) gastric longitudinal muscle strips
T2 sequence (P26824 22-432): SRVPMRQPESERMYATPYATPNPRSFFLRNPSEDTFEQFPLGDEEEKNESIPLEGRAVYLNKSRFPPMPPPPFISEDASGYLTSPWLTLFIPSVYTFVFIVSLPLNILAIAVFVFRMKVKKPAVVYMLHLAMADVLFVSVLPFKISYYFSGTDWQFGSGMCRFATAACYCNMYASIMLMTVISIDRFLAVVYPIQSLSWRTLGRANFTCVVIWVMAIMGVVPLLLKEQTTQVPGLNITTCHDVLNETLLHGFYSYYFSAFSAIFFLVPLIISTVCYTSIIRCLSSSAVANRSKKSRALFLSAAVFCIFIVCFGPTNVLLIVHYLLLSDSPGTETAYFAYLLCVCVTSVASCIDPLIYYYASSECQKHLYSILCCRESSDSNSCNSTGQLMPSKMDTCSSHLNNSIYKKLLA
Text: We obtained an evaluation of the potencies of the various TRPs, relative to P5, by using the linear portions of the concentration-effect curves, so as to calculate for several response levels the average ratio of concentrations (REC) of an individual TRP, relative to concentration of P5 that caused the same contractile response (i.e. REC =ECTRP .div.ECPS). […] In the RA assay, a similar approach to the estimate of relative potencies (REC S) was used, even though all agonists, except for P5--OCH3, appeared to cause equivalent maximal relaxation (FIG. 2, lower).
as §1, with “peptide agonists. For the GLM and RLM assays, concentration-effect curves for all peptides were constructed by expressing the response of each agonist as a percentage (% P595) relative to the contraction caused by 95 μM (60 μg/mL) P5 (0.9±0.1 g tension: mean ±S.E.M. for n=12 in the GLM; 1.6±0.9 g tension: mean ±S.E.M. for n=36 in the RLM).” for “peptide agonists.”
Weighed peptide samples were routinely dissolved in 50 mM phosphate buffer, pH 7.4, to yield stock solutions, from which volumes of up to 0.2 mL were added directly to the organ bath; the concentrations of all stock solutions used were verified by quantitative amino acid analysis of aliquots. Pr-P4 and Pr-P4--NH2 were dissolved in 40 mM phosphate buffer, pH 7.4, containing 20% v/v absolute ethanol (i.e. 8 Vol of the above 50 mM phosphate buffer +2 Vol. ethanol). Control aliquots of the ethanol-containing phosphate buffer alone had no effect on either of the bioassay systems. Acetylcholine, carbachol, indomethacin, noradrenaline and angiotensin-II and thrombin (human, 3000 to 4000 U/mg; 1 U/mL.perspectiveto.10 nM) were from Sigma (St. Louis, Mo.); genistein (GS) was from ICN Biochemicals, Costa Mesa, Calif. Tyrphostin (TP) (RG 50864, also designated AG213) was obtained through the courtesy of Dr. R. R. Swillo, Rhone-Poulenc Rorer (Collegeville, Pa). […] Indomethacin was dissolved in ethanol, such that the final ethanol concentration in the organ bath was at or lower than 0.01% v/v; this concentration of ethanol alone had no effect on the bioassay systems.

[4] = average concentration ratio relative to P5 causing equal relaxation response (REC = EC TRP ÷ EC P5)
[5] = average concentration ratio relative to P5 causing equal contractile response (REC = EC TRP ÷ EC P5)

SMILES: CCC(=O)N[C@@H](Cc1ccccc1)C(=O)N[C@@H](CC(C)C)C(=O)N[C@@H](CC(C)C)C(=O)N[C@@H](CCCNC(=N)N)C(=O)O [Pr-P4, N-propionyl-F43 LLR46] (Propionyl-FLLR-OH)
- Relative potency (REC) GLM [1]: 1
- Relative potency (REC) RA [2]: 0.1

SMILES: CC(C)C[C@H](NC(=O)[C@H](Cc1ccccc1)NC(=O)[C@H](Cc1ccccc1)NC(=O)[C@@H](N)CO)C(=O)N[C@@H](CCCNC(=N)N)C(=O)O [Ra-P5, SFFLR] (H-SFFLR-OH)
- Relative potency (REC) RLM [3]: 1.0
- Relative potency (REC) RA [2, 4]: 4.4

SMILES: CC(C)C[C@H](NC(=O)[C@H](CC(C)C)NC(=O)[C@H](Cc1ccccc1)NC(=O)[C@@H](N)CO)C(=O)N[C@@H](CCCN=C(N)N)C(=O)N[C@@H](CC(N)=O)C(=O)N1CCC[C@H]1C(=O)O [P7, S42 FLLRNP48] (H-SFLLRNP-OH)
- Relative potency (REC) RLM [3]: 0.3

SMILES: COc1ccc2c(c1)c(CC(=O)O)c(C)n2C(=O)c1ccc(Cl)cc1 [indomethacin, reference compound]
- Effect of inhibitor on contractile actions of P5--NH2 and Pr-P4 [1]: blocked
- Inhibition of the RLM response to P5-NH2 [3]: 40±6 % inhibition
- Effect of inhibitor on contractile action of carbachol ([3]; RLM): unaffected
- Effect of inhibitor on RA relaxation responses to TRPs ([2]; RA, P5-NH2 and Pr-P4): not inhibited

SMILES: O=c1c(-c2ccc(O)cc2)coc2cc(O)cc(O)c12 [genistein, reference compound]
- Effect of inhibitor on contractile actions of P5--NH2 and Pr-P4 [1]: similarly effective
- Effect of inhibitor on contractile action of carbachol ([3]; RLM): unaffected
- Inhibition of the RLM response to P5-NH2 ([3]; mean ±S.E.M. for n=6): 77±3 % inhibition

SMILES: COc1cc2ncnc(Nc3cccc(Cl)c3)c2cc1OC [tyrphostin, Tyrphostin, reference compound]
- Effect of inhibitor on contractile actions of P5--NH2 and Pr-P4 [1]: blocked
- Sensitivity of the RLM response to P5-NH2 to the inhibitor [3]: quite sensitive

SMILES: CC(C)C[C@H](NC(=O)[C@H](Cc1ccccc1)NC(=O)[C@H](Cc1ccccc1)NC(=O)[C@@H](N)CO)C(=O)N[C@@H](CCCNC(=N)N)C(N)=O [Ra-P5-NH2, SFFLR-amide] (H-SFFLR-NH2)
- Relative potency (REC) RLM [3]: 0.07
- Agonist (contractile) activity ([3]; RLM): most potent of all of the peptides we examined
- Agonist (relaxation) activity ([2]; RA): considerably less potent than the comparable human receptor sequences
- Relative potency (REC) RA [2, 4]: 0.2

SMILES: COC(=O)[C@H](CCCNC(=N)N)NC(=O)[C@H](CC(C)C)NC(=O)[C@H](CC(C)C)NC(=O)[C@H](Cc1ccccc1)NC(=O)[C@@H](N)CO [P5-OCH-3, S42 FLLR46 -O-Methyl]
- Relative potency (REC) GLM [1]: 0.1
- Relative potency (REC) RA [2]: 0.1
- Agonist (relaxation) activity ([2]; RA): partial agonist

SMILES: CC(C)C[C@H](NC(=O)[C@H](CC(C)C)NC(=O)[C@H](Cc1ccccc1)NC(=O)[C@@H](N)CO)C(=O)N[C@@H](CCCCN)C(=O)O [PK5, S42 FLLK46] (H-SFLLK-OH)
- Relative potency (REC) GLM [1]: 4.5
- Relative potency (REC) RA [2]: 1.3

SMILES: CC(C)C[C@H](NC(=O)[C@H](CC(C)C)NC(=O)[C@H](Cc1ccccc1)NC(=O)[C@@H](N)CO)C(=O)N[C@@H](CCCNC(=N)N)C(=O)N[C@@H](CC(N)=O)C(=O)N1CCC[C@H]1C(=O)O [P7, S42 FLLRNP48] (H-SFLLRNP-OH)
- Relative potency (REC) GLM [1, 5]: 0.4
- Relative potency (REC) RA [2, 4]: 1.1

SMILES: CC(C)C[C@H](NC(=O)[C@H](Cc1ccccc1)NC(=O)[C@H](Cc1ccccc1)NC(=O)[C@@H](N)CO)C(=O)N[C@@H](CCCNC(=N)N)C(=O)N[C@@H](CC(N)=O)C(=O)N1CCC[C@H]1C(=O)O [Ra-P7, SFFLRNP] (H-SFFLRNP-OH)
- Relative potency (REC) RLM [3]: 0.3
- Relative potency (REC) RA [2, 4]: 0.6

SMILES: CCC(=O)N[C@@H](Cc1ccccc1)C(=O)N[C@@H](CC(C)C)C(=O)N[C@@H](CC(C)C)C(=O)N[C@@H](CCCNC(=N)N)C(N)=O [Pr-P4-NH2, N-propionyl-F43 -LLR46 -amide] (Propionyl-FLLR-NH2)
- Relative potency (REC) RA [2, 4]: A.

SMILES: CC(C)C[C@H](NC(=O)[C@H](CC(C)C)NC(=O)[C@H](Cc1ccccc1)NC(=O)[C@H](C)N)C(=O)N[C@@H](CCCNC(=N)N)C(=O)O [AP5, A42 FLLR46] (H-AFLLR-OH)
- Relative potency (REC) GLM [1]: 1.8
- Relative potency (REC) RA [2]: 1.7

SMILES: CC(C)C[C@H](NC(=O)[C@H](CC(C)C)NC(=O)[C@H](Cc1ccccc1)NC(=O)[C@@H](N)CO)C(=O)N[C@@H](CCCN=C(N)N)C(=O)N[C@@H](CC(N)=O)C(=O)N1CCC[C@H]1C(N)=O [P7-NH2, S42 FLLRNP48 -amide] (H-SFLLRNP-NH2)
- Relative potency (REC) RLM [3]: 0.1

SMILES: CC(C)C[C@H](NC(=O)[C@H](CC(C)C)NC(=O)[C@H](Cc1ccccc1)NC(=O)[C@@H](N)CO)C(=O)N[C@@H](CCCNC(=N)N)C(=O)N[C@@H](CC(N)=O)C(=O)N1CCC[C@H]1C(N)=O [P7-NH2, S42 FLLRNP48 -amide] (H-SFLLRNP-NH2)
- Relative potency (REC) GLM [1, 5]: 0.04
- Agonist (relaxation) activity ([2]; RA): active
- Relative potency (REC) RA [2, 4]: 0.08
